In PubChem BioAssay AID330 (DTP/NCI, 2004):
Where “and” joins values, the source holds several entries; their conditions need not be identical. Equal values may be shown once. Toxic doses and inconclusive results are not listed. Rule for the calls: active = survival T/C of 150% or more; inactive = T/C below 125% in these data.

System: P388 leukemia ip, CD2F1 mice, survival T/C
Assay: NCI In Vivo Anticancer Drug Screen. Data for tumor model P388 Leukemia (intraperitoneal) in CD2F1 (CDF1) mice
Conditions: endpoint: median survival time, higher = longer survival
Summary of the method: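 Mice carrying the transplanted tumor received test compound or vehicle. Survival was recorded in each group, and the value is the treated-group measurement divided by that of the vehicle-treated control group.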

[1] = dose: 120.0 mg/kg/injection, schedule: Q01DX005 (ip), vehicle: Klucel (hydroxypropylcellulose) (HPC)
[2] = dose: 240.0 mg/kg/injection, schedule: Q01DX005 (ip), vehicle: Klucel (hydroxypropylcellulose) (HPC)
[3] = dose: 50.0 mg/kg/injection, schedule: Q01DX005 (ip), vehicle: Klucel (hydroxypropylcellulose) (HPC)
[4] = dose: 100.0 mg/kg/injection, schedule: Q01DX005 (ip), vehicle: Klucel (hydroxypropylcellulose) (HPC)
[5] = dose: 200.0 mg/kg/injection, schedule: Q01DX005 (ip), vehicle: Klucel (hydroxypropylcellulose) (HPC)
[6] = dose: 200.0 mg/kg/injection, schedule: Q01DX009 (ip), vehicle: saline with Tween-80

Measured: T/C

COc1cccc2c1C(=O)c1c(O)c3c(c(O)c1C2=O)C[C@@](O)(C(=O)COC(=O)c1cccnc1)C[C@@H]3OC1CC(N)C(O)C(C)O1 (stereo partly specified)
active: dose: 0.5 mg/kg/injection, schedule: Q01DX009 (ip), vehicle: water 163 % of control | dose: 1.0 mg/kg/injection, schedule: Q01DX009 (ip), vehicle: water 167 % of control | dose: 1.32 mg/kg/injection, schedule: Q01DX009 (ip), vehicle: saline sonified 209 % of control | dose: 2.0 mg/kg/injection, schedule: Q01DX009 (ip), vehicle: saline sonified 209 % of control | dose: 2.0 mg/kg/injection, schedule: Q01DX009 (ip), vehicle: water 229 % of control | dose: 8.0 mg/kg/injection, schedule: Q04DX003 (ip), vehicle: water 172 % of control | dose: 16.0 mg/kg/injection, schedule: Q04DX003 (ip), vehicle: water 166 % of control
inactive: dose: 0.25 mg/kg/injection, schedule: Q04DX003 (ip), vehicle: saline 114 % of control | dose: 0.5 mg/kg/injection, schedule: Q01DX009 (ip), vehicle: saline with Tween-80 118 % of control | dose: 0.5 mg/kg/injection, schedule: Q04DX003 (ip), vehicle: saline 113 % of control | dose: 0.5 mg/kg/injection, schedule: Q04DX003 (ip), vehicle: water 109 % of control | dose: 1.0 mg/kg/injection, schedule: Q01DX009 (ip), vehicle: saline with Tween-80 122 % of control | dose: 1.0 mg/kg/injection, schedule: Q04DX003 (ip), vehicle: saline 116 % of control and 122 % of control | dose: 1.0 mg/kg/injection, schedule: Q04DX003 (ip), vehicle: water 119 % of control | dose: 2.0 mg/kg/injection, schedule: Q04DX003 (ip), vehicle: saline 108 % of control | dose: 2.0 mg/kg/injection, schedule: Q04DX003 (ip), vehicle: water 119 % of control | dose: 3.0 mg/kg/injection, schedule: Q01DX009 (ip), vehicle: saline sonified 104 % of control | dose: 4.0 mg/kg/injection, schedule: Q01DX009 (ip), vehicle: water 102 % of control | dose: 4.0 mg/kg/injection, schedule: Q04DX003 (ip), vehicle: saline 113 % of control | dose: 4.0 mg/kg/injection, schedule: Q04DX003 (ip), vehicle: water 119 % of control | dose: 8.0 mg/kg/injection, schedule: Q04DX003 (ip), vehicle: saline 118 % of control | dose: 64.0 mg/kg/injection, schedule: Q04DX003 (ip), vehicle: saline 95 % of control

O=C(Cn1nnc(N2CCCCC2)n1)N/N=C/c1ccccc1O
inactive: dose: 30.0 mg/kg/injection, schedule: Q01DX005 (ip), vehicle: Klucel (hydroxypropylcellulose) (HPC) 88 % of control | [1] 95 % of control | [2] 95 % of control

Cc1cc2cc3c4c(nn5nnnc5c4c2o1)-c1ccccc1CC3
inactive: [3] 92 % of control | [4] 86 % of control | [5] 95 % of control

CCCOc1ccc2c(NCCCCCCNc3c4ccccc4nc4cc(OCCC)ccc34)c3ccccc3nc2c1
inactive: dose: 0.62 mg/kg/injection, schedule: Q## X009 (ip), vehicle: lactic acid 121 % of control | dose: 2.5 mg/kg/injection, schedule: Q## X009 (ip), vehicle: lactic acid 120 % of control | dose: 5.0 mg/kg/injection, schedule: Q## X009 (ip), vehicle: lactic acid 105 % of control

CC(C)=NNC1=NC(CC(C)C)P(=O)(NCCCCCCNP2(=O)SC(NN=C(C)C)=NC2CC(C)C)S1 (stereo unspecified)
inactive: dose: 60.0 mg/kg/injection, schedule: Q01DX005 (ip), vehicle: Klucel (hydroxypropylcellulose) (HPC) 97 % of control | [1] 103 % of control | [2] 95 % of control

Cc1[nH]c2ccc(CN)cc2c1CC(N)C(=O)O (stereo unspecified)
inactive: dose: 100.0 mg/kg/injection, schedule: Q01DX001 (ip), vehicle: saline 110 % of control | dose: 200.0 mg/kg/injection, schedule: Q01DX001 (ip), vehicle: saline 104 % of control | dose: 400.0 mg/kg/injection, schedule: Q01DX001 (ip), vehicle: saline 107 % of control

Cc1ccc(OP(=O)(Oc2ccc(C)cc2)Oc2ccc(C)cc2)cc1.Cc1ccc(OP(=O)(Oc2ccc(C)cc2)Oc2ccc(C)cc2)cc1.Cc1ccc(OP(=O)(Oc2ccc(C)cc2)Oc2ccc(C)cc2)cc1.Cc1ccc(OP(=O)(Oc2ccc(C)cc2)Oc2ccc(C)cc2)cc1.[Cu+2].[O-][Cl+3]([O-])([O-])O
inactive: dose: 50.0 mg/kg/injection, schedule: Q01DX001 (ip), vehicle: Klucel (hydroxypropylcellulose) (HPC) 96 % of control | dose: 100.0 mg/kg/injection, schedule: Q01DX001 (ip), vehicle: Klucel (hydroxypropylcellulose) (HPC) 94 % of control | dose: 200.0 mg/kg/injection, schedule: Q01DX001 (ip), vehicle: Klucel (hydroxypropylcellulose) (HPC) 92 % of control

C=C1C(=O)OC2/C=C(\C)C(O)/C=C\C(C)(O)CC(OC(=O)/C(C)=C/C)C12 (stereo unspecified)
inactive: dose: 10.0 mg/kg/injection, schedule: Q01DX009 (ip), vehicle: saline 114 % of control | dose: 20.0 mg/kg/injection, schedule: Q01DX009 (ip), vehicle: saline 101 % of control | dose: 40.0 mg/kg/injection, schedule: Q01DX009 (ip), vehicle: saline 108 % of control

C#Cc1cccc(N=Cc2ccc(C=Nc3cccc(C#C)c3)cc2)c1
inactive: dose: 6.25 mg/kg/injection, schedule: Q01DX009 (ip), vehicle: saline with Tween-80 104 % of control | dose: 12.5 mg/kg/injection, schedule: Q01DX009 (ip), vehicle: saline with Tween-80 112 % of control | dose: 25.0 mg/kg/injection, schedule: Q01DX009 (ip), vehicle: saline with Tween-80 86 % of control | [6] 88 % of control

COc1cc2c(cc1OC)[C@@H]1C(=O)c3ccc4c(c3O[C@@H]1CO2)C[C@H](C(C)C)O4
inactive: dose: 6.25 mg/kg/injection, schedule: Q01DX005 (ip), vehicle: Klucel (hydroxypropylcellulose) (HPC) 109 % of control | dose: 12.5 mg/kg/injection, schedule: Q01DX005 (ip), vehicle: Klucel (hydroxypropylcellulose) (HPC) 121 % of control and 123 % of control and 124 % of control | dose: 25.0 mg/kg/injection, schedule: Q01DX005 (ip), vehicle: Klucel (hydroxypropylcellulose) (HPC) 119 % of control

C/C(=N\N(C)/C=N/S(C)(=O)=O)c1ccccc1
inactive: [3] 98 % of control | [4] 95 % of control | [5] 104 % of control

Cn1c(CN(Cc2nc3ccccc3n2C)Cc2nc3ccccc3n2C)nc2ccccc21
inactive: dose: 12.5 mg/kg/injection, schedule: Q01DX005 (ip), vehicle: saline with Tween-80 103 % of control and 98 % of control | dose: 25.0 mg/kg/injection, schedule: Q01DX005 (ip), vehicle: saline with Tween-80 100 % of control and 102 % of control | dose: 50.0 mg/kg/injection, schedule: Q01DX005 (ip), vehicle: saline with Tween-80 103 % of control and 110 % of control

CCCCCCCCCCCCCCCCCC[N+]1(CC)CCCCC1
inactive: dose: 0.04 mg/kg/injection, schedule: Q01DX009 (ip), vehicle: saline 95 % of control | dose: 0.09 mg/kg/injection, schedule: Q01DX009 (ip), vehicle: saline 92 % of control | dose: 0.19 mg/kg/injection, schedule: Q01DX009 (ip), vehicle: saline 103 % of control and 118 % of control | dose: 0.39 mg/kg/injection, schedule: Q01DX009 (ip), vehicle: saline 113 % of control and 120 % of control | dose: 0.78 mg/kg/injection, schedule: Q01DX009 (ip), vehicle: saline 99 % of control

COC(=O)C12N=NN(c3ccccc3)C1(C(=O)OC)C1CCC2C1 (stereo unspecified)
inactive: dose: 100.0 mg/kg/injection, schedule: Q01DX009 (ip), vehicle: saline with Tween-80 95 % of control | [6] 100 % of control | dose: 400.0 mg/kg/injection, schedule: Q01DX009 (ip), vehicle: saline with Tween-80 90 % of control

CN(C)C1c2cc(Cl)ccc2-c2c(Cl)cc(Cl)cc21 (stereo unspecified)
inactive: [3] 100 % of control and 91 % of control | [4] 96 % of control | [5] 91 % of control and 92 % of control

CCC(C)Nc1ccc(N)cc1 (stereo unspecified)
inactive: dose: 0.1 mg/kg/injection, schedule: Q01DX009 (ip), vehicle: carboxymethylcellulose (CMC) 115 % of control | dose: 0.39 mg/kg/injection, schedule: Q01DX009 (ip), vehicle: Klucel (hydroxypropylcellulose) (HPC) 95 % of control | dose: 0.4 mg/kg/injection, schedule: Q01DX009 (ip), vehicle: carboxymethylcellulose (CMC) 111 % of control | dose: 0.78 mg/kg/injection, schedule: Q01DX009 (ip), vehicle: Klucel (hydroxypropylcellulose) (HPC) 102 % of control | dose: 1.56 mg/kg/injection, schedule: Q01DX009 (ip), vehicle: Klucel (hydroxypropylcellulose) (HPC) 104 % of control and 110 % of control | dose: 3.12 mg/kg/injection, schedule: Q01DX009 (ip), vehicle: Klucel (hydroxypropylcellulose) (HPC) 100 % of control and 119 % of control | dose: 6.25 mg/kg/injection, schedule: Q01DX009 (ip), vehicle: Klucel (hydroxypropylcellulose) (HPC) 108 % of control and 112 % of control

CC(C)=Cc1cc(-c2cc(C=C(C)C)nc(N)n2)nc(N)n1
inactive: dose: 60.0 mg/kg/injection, schedule: Q01DX005 (ip), vehicle: saline 97 % of control | dose: 120.0 mg/kg/injection, schedule: Q01DX005 (ip), vehicle: saline 94 % of control
